Measurements published in patent US11851631B2, “Household product delivering cooling sensations” (TAKASAGO INTERNATIONAL CORPORATION, priority 2016, dated 2023).

Tests used:
human TRPM8 = molecular target: T1, human TRPM8 (Homo sapiens, UniProt Q7Z2W7); assay: TRPM8 activation, Fluo-8 calcium fluorescence (FLIPR) in HEK-293 cells; type: cell-based; conditions: HEK-293 cells stably transfected with human TRPM8; for EC50: normalised to WS3 EC100
T1 construct: expressed in transfected cells; host or cells: HEK-293
Description: HEK-293 (Human Embryonic Kidney) cells stably transfected with human TRPM8 were grown in a culture medium of EMEM (minimum Essential Medium Eagle) with Earl's salts balanced salt solution (Lonza catalogue No BE12-125F), 5 mL of 200 mM Ultraglutamine 1 (Lonza Catalogue No BE17-605E/U1), 5 mL of 100× Penicillin/Streptomycin (Lonza Catalogue No DE17-602E) 50 mL of Fetal bovine serum (Euroclone Cat No ECS0180L) 2 mL of 100 mg/mL Genticin sulphate (G418 sulphate InvivoGen CatAnt-gn-5).
10,000 cells/well were seeded in a 384 MTP in complete medium. Then after 24 h the culture medium was manually removed. The cells were loaded with 20 μL/well of 0.5× Fluo-8 NW dye in standard Tyrode's buffer (Screen Quest™ Fluo-8 No wash Calcium assay kit supplied by AAT Bioquest catalogue No 26316) The plate was incubated for 1 h at room temperature in the dark. 10 μL/well of test compounds and controls were injected with the FLIPR^TETRA (Molecular Devices) and the emitted fluorescence signal was recorded at 520 nm for 3 min. The compound multiwall plate contained the samples at 8 different doses in quadruplicate data points. The dose response of the samples were performed starting from 100 mM concentration in 100% DMSO with a serial dilution of 1:2 and then diluted in assay buffer at the final concentration of 100 μM, 50 μM, 25 μM, 12.5 μM, 6 μM, 3 μM, 1.5 μM, and 0.7 μM.
In the compound plate was also present a dose response of the reference agonist N ethyl-p-menthane-3-carboxamide (WS3) at 8 concentrations and in duplicate. This reference control dosed as 16 wells (duplicates for each concentration) of reference agonist at EC100 correspond to the MAX signal response (100% activity). There were also 16 wells of blanks i.e. assay buffer without either a test sample or reference agonist which correspond to the MIN signal response (0% activity). MAX and MIN controls are used for data analysis (RZ′ calculation) and normalization of compound activity.
For data analysis the response value is calculated as the maximum signal of the kinetic trace after the injection minus the median of the points before injection and multiplied by the normalization factor (NF). The normalisation factor is the baseline mean of all wells in the plate divided by the baseline of a specific well. […]
The EC50 of the test samples was then calculated using a curve fitting program available within the data analysis software.

panel of 84 subjects = assay: Comparison of sensations between isopulegol and menthoxypropanediol (cool sensation in the nose); type: in vivo, human; conditions: 3% in triethyl citrate, isopulegol compared to menthoxypropanediol, ANOVA p<0.05
Description: A panel of 84 subjects was selected to take part in a comparative test between isopulegol (available as Coolact (registered trademark) P) and menthoxypropanediol (CAS 87061-04-9, available as Coolact (registered trademark) 10), both known for their cooling effect on skin.
The samples of isopulegol and menthoxypropanediol were prepared by dilution to 3% in Triethyl Citrate (TEC).
Panelists also had to score whether they perceived a cool sensation in the nose, on a scale of +100 (very cool) to −100 (very hot) with 0 (neutral) on the middle of the scale.

T1 sequence (Q7Z2W7 whole entry): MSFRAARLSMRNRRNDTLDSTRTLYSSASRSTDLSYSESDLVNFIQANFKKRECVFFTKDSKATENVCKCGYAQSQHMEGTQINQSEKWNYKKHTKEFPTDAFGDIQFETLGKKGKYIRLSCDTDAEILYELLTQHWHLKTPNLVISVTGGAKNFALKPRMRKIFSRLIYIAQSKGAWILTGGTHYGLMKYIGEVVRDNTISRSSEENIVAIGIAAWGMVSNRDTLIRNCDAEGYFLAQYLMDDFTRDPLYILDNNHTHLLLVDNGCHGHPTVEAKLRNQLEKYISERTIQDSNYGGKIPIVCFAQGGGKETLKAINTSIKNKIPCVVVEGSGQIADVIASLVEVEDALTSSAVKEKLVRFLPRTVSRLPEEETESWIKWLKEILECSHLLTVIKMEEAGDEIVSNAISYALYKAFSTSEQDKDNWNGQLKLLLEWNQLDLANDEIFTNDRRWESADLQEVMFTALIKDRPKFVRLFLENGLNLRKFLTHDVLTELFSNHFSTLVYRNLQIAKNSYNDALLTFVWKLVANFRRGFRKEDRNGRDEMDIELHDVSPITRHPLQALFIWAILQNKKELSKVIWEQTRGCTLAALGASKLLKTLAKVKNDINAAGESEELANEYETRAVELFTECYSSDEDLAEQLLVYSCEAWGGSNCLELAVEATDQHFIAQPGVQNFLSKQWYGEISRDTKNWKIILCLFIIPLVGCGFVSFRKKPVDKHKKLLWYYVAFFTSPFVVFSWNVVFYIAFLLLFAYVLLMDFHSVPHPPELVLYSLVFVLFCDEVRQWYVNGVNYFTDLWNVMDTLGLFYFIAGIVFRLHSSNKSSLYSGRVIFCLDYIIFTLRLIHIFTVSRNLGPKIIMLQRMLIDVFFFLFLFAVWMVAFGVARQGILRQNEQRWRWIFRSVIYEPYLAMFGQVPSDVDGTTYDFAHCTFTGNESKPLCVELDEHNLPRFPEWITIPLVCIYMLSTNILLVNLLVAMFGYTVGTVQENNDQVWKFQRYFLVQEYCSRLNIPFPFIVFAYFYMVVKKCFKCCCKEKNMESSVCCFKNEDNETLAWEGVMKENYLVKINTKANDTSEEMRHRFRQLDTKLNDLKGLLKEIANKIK

SMILES	TRPM8 activation (in words) (human TRPM8)	EC50 (human TRPM8)	cooling perception in the nose (in words) (panel of 84 subjects)
CC(C)[C@@H]1CC[C@@H](C)C[C@H]1OCC(O)CO (some centres unmarked) [Menthoxypropanediol, menthoxypropanediol]	activate TRPM8	7.7 µM	–
C=C(C)[C@@H]1CC[C@@H](C)C[C@H]1O (racemic) [Isopulegol, isopulegol]	activate TRPM8	–	improved cooling perception
CCNC(=O)C1CC(C)CCC1C(C)C (centres unmarked) [WS3, N ethyl-p-menthane-3-carboxamide]	–	6 µM	–
